As usually defined, the IC50 is the concentration at which inhibition is half-maximal.

SMILES strings stand for the structures.

This experiment deals with NMDA receptor glycine B site (Rattus norvegicus, UniProt P35439). Description: Calcium FLIPR studies, rat cortical neurons (NMDA/D-Serine induced intracellular calcium). It counts as cell-based. The arrangement: Primary neurons are prepared from cortices of embryonal rats at day 17 of pregnancy; endogenous in cells; host or cells: primary rat cortical neurons (E17, 11-13 DIV). Particulars: rat cortical neurons; stimulation with 30 μM NMDA and 1 μM D-Serine; antagonist pre-incubated 10 min; read-out: NMDA-FLIPR-rCTX-NAM - IC50. The method in brief: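 Embryonic (E17) Sprague-Dawley rat cortical neurons, 11-13 days in vitro, loaded with Calcium-4 dye (pH 7.3) and pre-incubated with antagonist (5 concentrations) for 10 min at room temperature, then stimulated with 30 μM NMDA plus 1 μM D-Serine. FLIPR AUC as percent of agonist control; IC50 by four-parameter logistic fit.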
As to `O=C(O)Cc1ccccc1NC(=O)COc1cc(C(=O)O)cc2cc(Cl)cc(Cl)c12` [Example 15, 4-[(2-Carboxymethylphenylcarbamoyl)-methoxy]-5,7-dichloronaphthalene-2-carboxylic acid], the IC50 worked out at 2.68 µM. For the compound `O=C(O)Cc1cccc(NC(=O)COc2cc(C(=O)O)cc3cc(Cl)cc(Cl)c23)c1` [Example 13, 4-[(3-Carboxymethylphenylcarbamoyl)-methoxy]-5,7-dichloronaphthalene-2-carboxylic acid], the IC50 was found to be 1.96 µM.

`O=C(O)COc1ccccc1NC(=O)COc1cc(C(=O)O)cc2cc(Cl)cc(Cl)c12` [Example 42, 4-[(2-Carboxymethoxyphenylcarbamoyl)-methoxy]-5,7-dichloronaphthalene-2-carboxylic acid]: the concentration for half-maximal inhibition (IC50) was determined as 0.105 µM. The value for `NCc1ccc(NC(=O)COc2cc(C(=O)O)cc3cc(Cl)cc(Cl)c23)c(OCC(=O)O)c1` [Example 34, 4-[(4-Aminomethyl-2-carboxymethoxyphenylcarbamoyl)-methoxy]-5,7-dichloronaphthalene-2-carboxylic acid] was 0.211 µM; that for `O=C(O)COc1ccccc1CNC(=O)COc1cc(C(=O)O)cc2cc(Cl)cc(Cl)c12` [Example 59, 4-[(2-Carboxymethoxy-benzylcarbamoyl)-methoxy]-5,7-dichloro-naphthalene-2-carboxylic acid] was 0.88 µM; that for `O=C(O)Cc1ccc(NC(=O)COc2cc(C(=O)O)cc3cc(Cl)cc(Cl)c23)cc1` [Example 7, 4-[(4-Carboxymethylphenylcarbamoyl)-methoxy]-5,7-dichloronaphthalene-2-carboxylic acid] was 4.01 µM.

Take `O=C(COc1cc(C(=O)O)cc2cc(Cl)cc(Cl)c12)Nc1ccccc1CO` [Example 5, 5,7-Dichloro-4-[(2-hydroxymethylphenylcarbamoyl)-methoxy]-naphthalene-2-carboxylic acid]: the IC50 was 7.08 µM. The value for `O=C(COc1cc(C(=O)O)cc2cc(Cl)cc(Cl)c12)Nc1ccccc1OCc1nnn[nH]1` [Example 60, 5,7-Dichloro-4-{[2-(1H-tetrazol-5-ylmethoxy)-phenylcarbamoyl]-methoxy}-naphthalene-2-carboxylic acid] was 1.56 µM. With `O=C(O)COc1cc(C(=O)O)cc2cc(Cl)cc(Cl)c12` [Example 1, 4-Carboxymethoxy-5,7-dichloronaphthalene-2-carboxylic acid], the IC50 was 6.2 µM.

On to `O=C(COc1cc(C(=O)O)cc2cc(Cl)cc(Cl)c12)NCc1ccccc1` [Example 18, 4-(Benzylcarbamoylmethoxy)-5,7-dichloro-naphthalene-2-carboxylic acid], for which the IC50 came to 9.56 µM. As for `CN(C(=O)COc1cc(C(=O)O)cc2cc(Cl)cc(Cl)c12)c1ccccc1C(=O)O` [Example 20, 4-{[(2-Carboxyphenyl)-methylcarbamoyl]-methoxy}-5,7-dichloronaphthalene-2-carboxylic acid], the IC50 was 1.22 µM. For the compound `COCC(Oc1cc(C(=O)O)cc2cc(Cl)cc(Cl)c12)C(=O)Nc1ccccc1OC` (centres unmarked) [Example 74, 5,7-Dichloro-4-[2-methoxy-1-(2-methoxy-phenylcarbamoyl)-ethoxy]-naphthalene-2-carboxylic acid], the IC50 came to 5.46 µM. For `O=C(COc1cc(C(=O)O)cc2cc(Cl)cc(Cl)c12)Nc1ccccc1C(=O)O` [Example 3, 4-[(2-Carboxy-phenylcarbamoyl)-methoxy]-5,7-dichloro-naphthalene-2-carboxylic acid], the IC50 came to 3.27 µM. With `O=C(O)c1cc(OCC(=O)N2CCOc3c(CO)cccc32)c2c(Cl)cc(Cl)cc2c1` [Example 78, 5,7-Dichloro-4-[2-(8-hydroxymethyl-2,3-dihydro-benzo[1,4]oxazin-4-yl)-2-oxo-ethoxy]-naphthalene-2-carboxylic acid] the figure was 4.13 µM; with `O=C(O)c1cc(OCC(=O)N2CCCc3ccccc32)c2c(Cl)cc(Cl)cc2c1` [Example 50, 5,7-Dichloro-4-[2-(3,4-dihydro-2H-quinolin-1-yl)-2-oxo-ethoxy]-naphthalene-2-carboxylic acid], 7.41 µM. `O=C(COc1cc(C(=O)O)cc2cc(Cl)cc(Cl)c12)Nc1ccccc1OCC(=O)N1CCOCC1` [Example 54, 5,7-Dichloro-4-{[2-(2-morpholin-4-yl-2-oxo-ethoxy)-phenylcarbamoyl]-methoxy}-naphthalene-2-carboxylic acid]: the concentration for half-maximal inhibition (IC50) was determined as 1.7 µM. With `CN(C(=O)COc1cc(C(=O)O)cc2cc(Cl)cc(Cl)c12)c1ccc(C(=O)O)cc1` [Example 14, 4-{[(4-Carboxy-phenyl)-methylcarbamoyl]-methoxy}-5,7-dichloronaphthalene-2-carboxylic acid], the IC50 worked out at 7.33 µM.

The record behind these values is patent US20120220577A1, “GLYCINE B ANTAGONISTS” (Merz Pharma GmbH & Co KgaA, priority 2009, published 2012).
